Values of other authors as cited in patent US8410056B2, “Pro-oxidant anti-cancer compounds” (priority 2006, dated 2013).

Columns and labels:
[1] = test system: LNCaP, PC-3; conditions: Shiau et al, 2006; cited from earlier work
[2] = test system: MDA-MB-435; conditions: cited from earlier work
[3] = test system: B16(F10); conditions: B16(F10); He et al, 1997; cited from earlier work
[4] = test system: MCF7; conditions: cited from earlier work
[5] = test system: neoplastic + SA mammary epithelial cells; conditions: cited from earlier work

Compound | IC50 [1] | IC50 [2] | IC50 [3] | IC50 [4] | IC50 [5]
Cc1c(C)c2c(c(C)c1OC(=O)CCC(=O)O)CCC(C)(C)O2 [Compound 46] | > 100 µM |  |  |  | 
CC(C)=CCC/C(C)=C/CC/C(C)=C/CC[C@]1(C)CCc2c(C)c(O)c(C)c(C)c2O1 [Compound 53, α-tocotrienol] |  | 210 µM | 110 µM | 14 µM | 
CC(C)=CCC/C(C)=C/CC/C(C)=C/CC[C@]1(C)CCc2cc(O)c(C)c(C)c2O1 [Compound 56, γ-tocotrienol] |  |  | 20 µM |  | 4 µM
